# Assay results reported in patent US20180168208A1 (priority 2014, published 2018).
# Target: T1, cat T1R1/T1R3 receptor (Felis catus, UniProt A0ABI7Z2I4)
# T1 sequence (A0ABI7Z2I4 171-420): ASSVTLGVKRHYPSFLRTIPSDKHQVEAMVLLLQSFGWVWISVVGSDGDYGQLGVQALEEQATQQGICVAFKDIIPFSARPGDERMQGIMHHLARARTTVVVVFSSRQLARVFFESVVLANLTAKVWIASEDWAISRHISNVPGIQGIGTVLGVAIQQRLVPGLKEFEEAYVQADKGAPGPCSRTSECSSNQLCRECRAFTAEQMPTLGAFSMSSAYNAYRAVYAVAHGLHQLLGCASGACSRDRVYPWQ
# T1 sequence (Q49KI5 25-865 E206Q/N523D/F654L partner): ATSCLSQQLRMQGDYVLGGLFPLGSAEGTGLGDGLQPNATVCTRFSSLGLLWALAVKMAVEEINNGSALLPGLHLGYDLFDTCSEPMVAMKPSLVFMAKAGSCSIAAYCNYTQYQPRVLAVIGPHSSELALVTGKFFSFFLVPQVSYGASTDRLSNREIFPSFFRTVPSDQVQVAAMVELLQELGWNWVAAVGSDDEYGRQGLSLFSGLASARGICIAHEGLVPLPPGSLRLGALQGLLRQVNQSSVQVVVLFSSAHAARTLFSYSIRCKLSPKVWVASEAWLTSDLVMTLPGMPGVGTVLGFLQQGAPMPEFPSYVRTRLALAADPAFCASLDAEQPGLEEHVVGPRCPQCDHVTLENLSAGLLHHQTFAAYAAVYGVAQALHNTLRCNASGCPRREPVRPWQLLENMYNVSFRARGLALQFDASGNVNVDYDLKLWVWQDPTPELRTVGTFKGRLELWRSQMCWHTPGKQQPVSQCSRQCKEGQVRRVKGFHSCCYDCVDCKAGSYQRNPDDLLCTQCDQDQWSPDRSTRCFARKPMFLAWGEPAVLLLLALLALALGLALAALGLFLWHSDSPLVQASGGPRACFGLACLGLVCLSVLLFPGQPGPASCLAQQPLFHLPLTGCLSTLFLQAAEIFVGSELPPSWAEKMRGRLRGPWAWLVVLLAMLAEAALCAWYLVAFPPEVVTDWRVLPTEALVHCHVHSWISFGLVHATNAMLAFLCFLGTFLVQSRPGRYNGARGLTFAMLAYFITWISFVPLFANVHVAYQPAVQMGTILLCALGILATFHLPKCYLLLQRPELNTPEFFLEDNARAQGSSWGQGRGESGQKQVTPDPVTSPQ
# Test: cell-based
# Conditions: not given
# From the text: (§1) HEK293 cells that stably express T1R3 and inducibly express T1R1 were exposed to nucleotide derivatives alone or in combination with one or more amino acids and/or one or more nucleotides to activate the umami receptor. Activation of the T1R1/T1R3 receptor was detected by a change in intracellular calcium levels using a calcium sensitive fluorescent dye and/or a luminescent reporter system. Cells that express T1R3 but not T1R1 were used as a control. A FLIPR® Tetra or a FlexStation® 3 was used for data capture.
SMILES,EC50 [µM],Threshold [mM],Activity
O=P(O)(O)OP(=O)(O)OP(=O)(O)OC[C@H]1O[C@@H](n2cnc3c(Cl)ncnc32)[C@H](O)[C@@H]1O [6-Chloropurine riboside-5′-O-triphosphate],> 30,0.01,–
"Nc1nc2c(ncn2[C@@H]2O[C@H](COP(=O)(O)O)[C@@H](O)[C@H]2O)c(=O)[nH]1 [GMP, guanosine monophosphate, reference compound]",20,0.008,–
NC(=O)c1ncn(C2OC(COP(=O)(O)O)C(O)C2O)n1 (stereo not drawn) [Ribavirin 5′-Monophosphate],–,0.175,active
"O=c1ccn([C@@H]2O[C@H](COP(=O)(O)O)[C@@H](O)[C@H]2O)c(=O)[nH]1 [UMP, uridine monophosphate, reference compound]",> 30000,–,–
"Nc1ncnc2c1ncn2[C@@H]1O[C@H](COP(=O)(O)O)[C@@H](O)[C@H]1O [adenosine monophosphate (AMP), adenosine monophosphate, reference compound]",11,–,–
Nc1ncnc2c1ncn2[C@@H]1O[C@H](COP(=O)(O)O)[C@@H](O)[C@H]1O [adenosine monophosphate],–,0.003,active
"O=P(O)(O)OP(=O)(O)OP(=O)(O)OC[C@H]1O[C@@H](n2cnc3c(O)ncnc32)[C@H](O)[C@@H]1O [inosine triphosphate (ITP), inosine triphosphate]",80,–,–
O=c1[nH]c(=O)c2ncn([C@@H]3O[C@H](COP(=O)(O)O)[C@@H](O)[C@H]3O)c2[nH]1 [xanthosine monophosphate],–,0.025,active

# Same assay, conditions: read-out: EC50
row,SMILES,EC50 [µM]
1,"N[C@@H](CS)C(=O)O [L-Cysteine, cysteine]",39500 ± 1900
2,"N[C@@H](Cc1ccc(O)cc1)C(=O)O [L-Tyrosine, tyrosine]",10300 ± 900

# Target: T2, T1R1/T1R3 receptor (Felis catus, UniProt E3UMS2)
# Test: cell-based
# Type: cell-based
# Conditions: not given
# From the text: as §1, with “transmembrane compounds” for “nucleotide derivatives”, “dye.” for “dye and/or a luminescent reporter system.”
# (§2) In each experiment, serial dilutions of up to 10 mM of the transmembrane compound were added to the T1R1/T1R3-expressing cells.
row,SMILES,EC50 [µM]
1,"Nc1nc2c(ncn2[C@@H]2O[C@H](COP(=O)(O)O)[C@@H](O)[C@H]2O)c(=O)[nH]1 [GMP, guanosine monophosphate, reference compound]",50 ± 20

# Same assay, conditions: EC50 (effect with 0.2 mM IMP), positive controls measured with 0.2 mM IMP
row,SMILES,EC50 [µM]
1,"Nc1nc2c(ncn2[C@@H]2O[C@H](COP(=O)(O)O)[C@@H](O)[C@H]2O)c(=O)[nH]1 [GMP, guanosine monophosphate, reference compound]",50 ± 4
2,"N[C@@H](CS)C(=O)O [L-Cysteine, cysteine]",39500 ± 1900

# Same assay, conditions: alone in buffer; read-out: EC50 - alone
row,SMILES,EC50 [µM]
1,"Nc1nc2c(ncn2[C@@H]2O[C@H](COP(=O)(O)O)[C@@H](O)[C@H]2O)c(=O)[nH]1 [GMP, guanosine monophosphate, reference compound]",40 ± 10

# Target: T2, T1R1/T1R3 receptor
# Test: cell-based
# Conditions: not given
# Remark: another data set of the same source
# From the text: as §1, with “alone” for “alone or in combination with one or more amino acids and/or one or more nucleotides”, “dye.” for “dye and/or a luminescent reporter system.”
# as §1
# as §1, with “transmembrane compounds” for “nucleotide derivatives”, “dye.” for “dye and/or a luminescent reporter system.”
# as §2
SMILES,"Max resp % of IMP, +Alanine (20 mM) [%]","Thres (mM), +Alanine (20 mM) [mM]"
O=P(O)(O)OP(=O)(O)OP(=O)(O)OC[C@H]1O[C@@H](n2cnc3c(Cl)ncnc32)[C@H](O)[C@@H]1O [6-Chloropurine riboside-5′-O-triphosphate],50.4,0.01

# Same assay, conditions: EC50 (effect with 0.2 mM IMP), control compounds, with 0.2 mM IMP; Table 25
row,SMILES,EC50 [mM]
1,"Nc1nc2c(ncn2[C@@H]2O[C@H](COP(=O)(O)O)[C@@H](O)[C@H]2O)c(=O)[nH]1 [GMP, guanosine monophosphate, reference compound]",0.09 ± 0.02
2,"N[C@@H](CS)C(=O)O [L-Cysteine, cysteine]",43.9 ± 5.6
3,"N[C@@H](Cc1ccc(O)cc1)C(=O)O [L-Tyrosine, tyrosine]",9.3 ± 1.7

# Same assay, conditions: EC50 (mM), +IMP (0.2 mM), in the presence of 0.2 mM IMP
row,SMILES,EC50 [mM]
1,"N[C@@H](CS)C(=O)O [L-Cysteine, cysteine]",43.9
2,"N[C@@H](Cc1ccc(O)cc1)C(=O)O [L-Tyrosine, tyrosine]",9.3

# Same assay, conditions: alone in buffer; read-out: T1R1/T1R3 EC50 alone in buffer
row,SMILES,EC50 [mM]
1,O=P(O)(O)OP(=O)(O)OP(=O)(O)OC[C@H]1O[C@@H](n2cnc3c(Cl)ncnc32)[C@H](O)[C@@H]1O [6-Chloropurine riboside-5′-O-triphosphate],> 0.03

# Same assay, conditions: compound alone in buffer; read-out: EC50 (mM), +buffer (alone)
row,SMILES,EC50 [mM]
1,O=P(O)(O)OP(=O)(O)OP(=O)(O)OC[C@H]1O[C@@H](n2cnc3c(Cl)ncnc32)[C@H](O)[C@@H]1O [6-Chloropurine riboside-5′-O-triphosphate],> 0.3

# Same assay, conditions: in the presence of 0.2 mM IMP
row,SMILES,"Max resp ΔF/F, +IMP (0.2 mM)"
1,"N[C@@H](CS)C(=O)O [L-Cysteine, cysteine]",0.5800 ΔF/F

# Same assay, conditions: in the presence of 0.2 mM IMP; relative to alanine
row,SMILES,"Max resp % of Ala, +IMP (0.2 mM) [%]"
1,O=P(O)(O)OP(=O)(O)OP(=O)(O)OC[C@H]1O[C@@H](n2cnc3c(Cl)ncnc32)[C@H](O)[C@@H]1O [6-Chloropurine riboside-5′-O-triphosphate],30.2
2,"N[C@@H](CS)C(=O)O [L-Cysteine, cysteine]",74.6
3,"N[C@@H](Cc1ccc(O)cc1)C(=O)O [L-Tyrosine, tyrosine]",38.0

# Same assay, conditions: overall call: active or N/A (not active) on T1R1/T1R3
row,SMILES,Activity
1,O=P(O)(O)OP(=O)(O)OP(=O)(O)OC[C@H]1O[C@@H](n2cnc3c(Cl)ncnc32)[C@H](O)[C@@H]1O [6-Chloropurine riboside-5′-O-triphosphate],active

# Same assay, conditions: read-out: EC50 (mM), +Alanine (20 mM)
row,SMILES,EC50 [mM]
1,O=P(O)(O)OP(=O)(O)OP(=O)(O)OC[C@H]1O[C@@H](n2cnc3c(Cl)ncnc32)[C@H](O)[C@@H]1O [6-Chloropurine riboside-5′-O-triphosphate],> 0.3

# Same assay, conditions: read-out: EC50 (mM), +Alanine (20 mM) + IMP (0.2 mM)
row,SMILES,EC50 [mM]
1,O=P(O)(O)OP(=O)(O)OP(=O)(O)OC[C@H]1O[C@@H](n2cnc3c(Cl)ncnc32)[C@H](O)[C@@H]1O [6-Chloropurine riboside-5′-O-triphosphate],> 0.3

# Same assay, conditions: read-out: EC50 (mM), +IMP (0.2 mM); in the presence of 0.2 mM IMP
row,SMILES,EC50 [mM]
1,O=P(O)(O)OP(=O)(O)OP(=O)(O)OC[C@H]1O[C@@H](n2cnc3c(Cl)ncnc32)[C@H](O)[C@@H]1O [6-Chloropurine riboside-5′-O-triphosphate],> 0.3

# Same assay, conditions: read-out: T1R1/T1R3 EC50 +0.2 mM IMP; +0.2 mM IMP
row,SMILES,EC50 [mM]
1,O=P(O)(O)OP(=O)(O)OP(=O)(O)OC[C@H]1O[C@@H](n2cnc3c(Cl)ncnc32)[C@H](O)[C@@H]1O [6-Chloropurine riboside-5′-O-triphosphate],> 0.03

# Same assay, conditions: read-out: T1R1/T1R3 EC50 +20 mM L-alanine
row,SMILES,EC50 [mM]
1,O=P(O)(O)OP(=O)(O)OP(=O)(O)OC[C@H]1O[C@@H](n2cnc3c(Cl)ncnc32)[C@H](O)[C@@H]1O [6-Chloropurine riboside-5′-O-triphosphate],> 0.03

# Same assay, conditions: read-out: T1R1/T1R3 EC50 +20 mM L-alanine + 0.2 mM IMP
row,SMILES,EC50 [mM]
1,O=P(O)(O)OP(=O)(O)OP(=O)(O)OC[C@H]1O[C@@H](n2cnc3c(Cl)ncnc32)[C@H](O)[C@@H]1O [6-Chloropurine riboside-5′-O-triphosphate],> 0.03

# Same assay, conditions: threshold concentration in the presence of 0.2 mM IMP
row,SMILES,"Thres (mM), +IMP (0.2 mM) [mM]"
1,O=P(O)(O)OP(=O)(O)OP(=O)(O)OC[C@H]1O[C@@H](n2cnc3c(Cl)ncnc32)[C@H](O)[C@@H]1O [6-Chloropurine riboside-5′-O-triphosphate],0.003
2,"N[C@@H](CS)C(=O)O [L-Cysteine, cysteine]",10.0
3,"N[C@@H](Cc1ccc(O)cc1)C(=O)O [L-Tyrosine, tyrosine]",3.0
